Reference: ChEMBL document CHEMBL4616674, “Fragment-based Differential Targeting of PPI Stabilizer Interfaces” (J Med Chem, 2020)
Blank lines part the entries; values can stand above or below the molecule they belong to. The source made the active and inactive calls. The rule behind the calls is not given here.

Assays:
[1] = target: T1, 14-3-3 protein sigma (Homo sapiens) (UniProt P31947); test: Binding affinity to 6x-His tagged 14-3-3-sigma (unknown origin) expressed in Escherichia coli BL21 (DE3) at 500 uM in presence of p53pT387 peptide by WaterLOGSY NMR spectroscopy
T1 sequence (whole entry): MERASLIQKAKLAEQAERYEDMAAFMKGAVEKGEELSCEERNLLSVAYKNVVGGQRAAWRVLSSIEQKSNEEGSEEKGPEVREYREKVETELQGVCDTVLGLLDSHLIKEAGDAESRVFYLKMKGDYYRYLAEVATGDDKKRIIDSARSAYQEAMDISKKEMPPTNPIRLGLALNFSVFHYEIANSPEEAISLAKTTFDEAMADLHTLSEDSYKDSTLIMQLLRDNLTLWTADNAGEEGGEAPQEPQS

[2] = target: T1, 14-3-3 protein sigma (Homo sapiens); test: Binding affinity to 6x-His tagged 14-3-3-sigma (unknown origin) expressed in Escherichia coli at 1 mM by fluorescence polarization assay
[3] = target: T1, 14-3-3 protein sigma (Homo sapiens); test: Binding affinity to 15N2H labeled and 6x-His tagged 14-3-3-sigma (unknown origin) expressed in Escherichia coli assessed as induction of broadening (intensity decrease) and chemical shift value perturbation at 2000 uM in presence of p53pT387 peptide by 1H-15N TROSY-HSQC NMR spectroscopy
[4] = target: T1, 14-3-3 protein sigma (Homo sapiens); test: Binding affinity to 6x-His tagged 14-3-3-sigma (unknown origin) expressed in Escherichia coli at 1 mM by SPR assay
[5] = target: T1, 14-3-3 protein sigma (Homo sapiens); test: Binding affinity to 15N2H labeled and 6x-His tagged 14-3-3-sigma (unknown origin) expressed in Escherichia coli assessed as induction of broadening (intensity decrease) and chemical shift value perturbation at 2000 uM in absence of p53pT387 peptide by 1H-15N TROSY-HSQC NMR spectroscopy
[6] = target: T1, 14-3-3 protein sigma (Homo sapiens); test: Binding affinity to 6x-His tagged 14-3-3-sigma (unknown origin) expressed in Escherichia coli BL21 (DE3) in presence of acetylated p53pT387 peptide by crystallography

Activity [1]: Active
Activity [2]: Active
Activity [3]: Active
Activity [4]: Active
Activity [5]: Active
SMILES: CC(C)Oc1ccc(C(=O)NCCN)c2cc(C(=N)N)sc12

Activity [6]: Active
SMILES: CC(CN)Nc1cccc2cc(C(=N)N)sc12 (stereo not drawn)

Activity [6]: Active
SMILES: N=C(N)c1cc(-c2ccccc2)c(-c2c[nH]cn2)s1

Activity [6]: Active
SMILES: CC(CN)Nc1cc(CS)cc2sc(C(=N)N)cc12 (stereo not drawn)
